{
  "source": "patent US9422297B2",
  "about": "“Tricyclic compounds having cytostatic and/or cytotoxic activity and methods of use thereof” (Duquesne University of the Holy Ghost, priority 2007, dated 2016)",
  "format_in_all_cases": "cell-based",
  "key": {"SW-620": {"test_system": "SW-620", "experiment": "NCI In-Vitro Testing, Colon Cancer"}, "HCT-116": {"test_system": "HCT-116", "experiment": "NCI In-Vitro Testing, Colon Cancer"}, "NCI-H322M": {"test_system": "NCI-H322M", "experiment": "NCI In-Vitro Testing, Non-Small Cell Lung Cancer"}, "KM12": {"test_system": "KM12", "experiment": "NCI In-Vitro Testing, Colon Cancer"}, "M14": {"test_system": "M14", "experiment": "NCI In-Vitro Testing, Melanoma"}, "UACC-257": {"test_system": "UACC-257", "experiment": "NCI In-Vitro Testing, Melanoma"}},
  "data": [
    {"molecule": "Nc1nc2c(c(Nc3ccc(Cl)cc3)n1)-c1ccccc1C2", "note": "[AAG145-136]", "values": [
      {"measurement": "GI50", "setting": "SW-620", "result": "6.30E−8", "unit": "Molar"},
      {"measurement": "LC50", "setting": "SW-620", "result": ">1.00E−4", "unit": "Molar"},
      {"measurement": "TGI", "setting": "SW-620", "result": ">1.00E−4", "unit": "Molar"},
      {"measurement": "Percent Growth", "setting": "SW-620; Log10 Concentration −4.0 Molar", "result": 10, "unit": "%"},
      {"measurement": "Percent Growth", "setting": "SW-620; Log10 Concentration −5.0 Molar", "result": 10, "unit": "%"},
      {"measurement": "Percent Growth", "setting": "SW-620; Log10 Concentration −6.0 Molar", "result": 15, "unit": "%"},
      {"measurement": "Percent Growth", "setting": "SW-620; Log10 Concentration −7.0 Molar", "result": 39, "unit": "%"},
      {"measurement": "Percent Growth", "setting": "SW-620; Log10 Concentration −8.0 Molar", "result": 92, "unit": "%"},
      {"measurement": "GI50", "setting": "HCT-116", "result": "3.81E−8", "unit": "Molar"},
      {"measurement": "LC50", "setting": "HCT-116", "result": ">1.00E−4", "unit": "Molar"},
      {"measurement": "TGI", "setting": "HCT-116", "result": ">1.00E−4", "unit": "Molar"},
      {"measurement": "Percent Growth", "setting": "HCT-116; Log10 Concentration −4.0 Molar", "result": 6, "unit": "%"},
      {"measurement": "Percent Growth", "setting": "HCT-116; Log10 Concentration −5.0 Molar", "result": 13, "unit": "%"},
      {"measurement": "Percent Growth", "setting": "HCT-116; Log10 Concentration −6.0 Molar", "result": 13, "unit": "%"},
      {"measurement": "Percent Growth", "setting": "HCT-116; Log10 Concentration −7.0 Molar", "result": 23, "unit": "%"},
      {"measurement": "Percent Growth", "setting": "HCT-116; Log10 Concentration −8.0 Molar", "result": 87, "unit": "%"},
      {"measurement": "GI50", "setting": "NCI-H322M", "result": "1.35E−6", "unit": "Molar"},
      {"measurement": "LC50", "setting": "NCI-H322M", "result": ">1.00E−4", "unit": "Molar"},
      {"measurement": "TGI", "setting": "NCI-H322M", "result": ">1.00E−4", "unit": "Molar"},
      {"measurement": "Percent Growth", "setting": "NCI-H322M; Log10 Concentration −4.0 Molar", "result": 39, "unit": "%"},
      {"measurement": "Percent Growth", "setting": "NCI-H322M; Log10 Concentration −5.0 Molar", "result": 32, "unit": "%"},
      {"measurement": "Percent Growth", "setting": "NCI-H322M; Log10 Concentration −6.0 Molar", "result": 53, "unit": "%"},
      {"measurement": "Percent Growth", "setting": "NCI-H322M; Log10 Concentration −7.0 Molar", "result": 101, "unit": "%"},
      {"measurement": "Percent Growth", "setting": "NCI-H322M; Log10 Concentration −8.0 Molar", "result": 103, "unit": "%"},
      {"measurement": "GI50", "setting": "KM12", "result": "3.30E−7", "unit": "Molar"},
      {"measurement": "LC50", "setting": "KM12", "result": ">1.00E−4", "unit": "Molar"},
      {"measurement": "TGI", "setting": "KM12", "result": ">1.00E−4", "unit": "Molar"},
      {"measurement": "Percent Growth", "setting": "KM12; Log10 Concentration −4.0 Molar", "result": 5, "unit": "%"},
      {"measurement": "Percent Growth", "setting": "KM12; Log10 Concentration −5.0 Molar", "result": 7, "unit": "%"},
      {"measurement": "Percent Growth", "setting": "KM12; Log10 Concentration −6.0 Molar", "result": 25, "unit": "%"},
      {"measurement": "Percent Growth", "setting": "KM12; Log10 Concentration −7.0 Molar", "result": 77, "unit": "%"},
      {"measurement": "Percent Growth", "setting": "KM12; Log10 Concentration −8.0 Molar", "result": 98, "unit": "%"},
      {"measurement": "GI50", "setting": "M14", "result": "4.31E−7", "unit": "Molar"},
      {"measurement": "LC50", "setting": "M14", "result": ">1.00E−4", "unit": "Molar"},
      {"measurement": "TGI", "setting": "M14", "result": ">1.00E−4", "unit": "Molar"},
      {"measurement": "Percent Growth", "setting": "M14; Log10 Concentration −4.0 Molar", "result": 34, "unit": "%"},
      {"measurement": "Percent Growth", "setting": "M14; Log10 Concentration −5.0 Molar", "result": 21, "unit": "%"},
      {"measurement": "Percent Growth", "setting": "M14; Log10 Concentration −6.0 Molar", "result": 31, "unit": "%"},
      {"measurement": "Percent Growth", "setting": "M14; Log10 Concentration −7.0 Molar", "result": 84, "unit": "%"},
      {"measurement": "Percent Growth", "setting": "M14; Log10 Concentration −8.0 Molar", "result": 102, "unit": "%"},
      {"measurement": "GI50", "setting": "UACC-257", "result": "6.45E−8", "unit": "Molar"},
      {"measurement": "LC50", "setting": "UACC-257", "result": ">1.00E−4", "unit": "Molar"},
      {"measurement": "TGI", "setting": "UACC-257", "result": ">1.00E−4", "unit": "Molar"},
      {"measurement": "Percent Growth", "setting": "UACC-257; Log10 Concentration −4.0 Molar", "result": 6, "unit": "%"},
      {"measurement": "Percent Growth", "setting": "UACC-257; Log10 Concentration −5.0 Molar", "result": 21, "unit": "%"},
      {"measurement": "Percent Growth", "setting": "UACC-257; Log10 Concentration −6.0 Molar", "result": 33, "unit": "%"},
      {"measurement": "Percent Growth", "setting": "UACC-257; Log10 Concentration −7.0 Molar", "result": 46, "unit": "%"},
      {"measurement": "Percent Growth", "setting": "UACC-257; Log10 Concentration −8.0 Molar", "result": 102, "unit": "%"}
    ]}
  ]
}
